Measured values from patent publication US20230066011A1, “PYRROLOPYRIMIDINE DERIVATIVE, AND PHARMACEUTICAL COMPOSITION FOR PREVENTING OR TREATING PROTEIN KINASE-RELATED DISEASE COMPRISING SAME AS ACTIVE INGREDIENT” (VORONOI CO., LTD., priority 2019, published 2023).

Columns and labels:
MDA-MB-468 cell line = assay: Inhibition of proliferation of MDA-MB-468 cancer cells (Cell Titer-Glo); format: cell-based; details: Homo sapiens, MDA-MB-468, 72 hours
Procedure, shortened: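 Growth inhibition over 72 h: cells seeded at 2,000/well and dosed at eleven 3-fold-spaced final concentrations from 10.000000 μM. Read-out is ATP luminescence (Cell Titer-Glo, 10 min, room temperature), with GI50 derived from it.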

human GST-CLK1 = target: T1, human GST-CLK1 (Homo sapiens, UniProt P49759); assay: GST-CLK1 enzyme inhibition, ADP-Glo kinase assay; format: biochemical; details: ATP 10 μM, GST-CLK1 129-end
T1 construct: purified human GST-CLK1 (129-end, SignalChem) enzyme; purchased SignalChem
T1 sequence (P49759 129-484 limits assumed): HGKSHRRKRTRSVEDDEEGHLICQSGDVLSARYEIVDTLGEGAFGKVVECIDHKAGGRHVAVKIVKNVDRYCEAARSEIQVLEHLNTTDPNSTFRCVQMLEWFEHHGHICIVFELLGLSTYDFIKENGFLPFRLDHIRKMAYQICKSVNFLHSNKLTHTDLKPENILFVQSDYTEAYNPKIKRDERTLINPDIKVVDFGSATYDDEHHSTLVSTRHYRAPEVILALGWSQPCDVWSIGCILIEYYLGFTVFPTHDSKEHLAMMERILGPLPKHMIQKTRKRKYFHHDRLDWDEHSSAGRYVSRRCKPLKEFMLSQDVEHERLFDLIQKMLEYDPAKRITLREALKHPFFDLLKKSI
Procedure, shortened: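 ADP-Glo luminescence read-out, relative to untreated solvent control, gave IC50 (nM) from triplicate data sets. Reactions ran an hour at 25° C with 3 ng GST-CLK1 (residues 129-end), 10 μM ATP and specific substrate in Tris-HCl pH 7.4 buffer with MgCl2, BSA and DTT.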

human DYRK1A and tau = assay: Inhibition of tau phosphorylation, ClariCELL Kinase Cell-Based Assay, HEK 293 cells expressing human DYRK1A and tau; details: for inhibition at 1 µM: HEK293, read-out: % inhibition at 1 uM, tau phosphorylation, compound 1 uM; for inhibition at 0.25 µM / inhibition at 0.5 µM: HEK293, tau phosphorylation; for inhibition at 0.25 µM: compound 0.25 uM; for inhibition at 0.5 µM: compound 0.5 uM
Procedure, shortened: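 Cell-based service assay: HEK 293 cells transiently expressing human DYRK1A and tau were treated with compound and lysed. Released tau was plate-captured and its phosphorylation quantified by ELISA with a phospho-tau-specific antibody.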

| Structure (SMILES) | GI50 (MDA-MB-468 cell line) [nM] | IC50 (human GST-CLK1) [nM] | inhibition at 1 µM (human DYRK1A and tau) [%] | inhibition at 0.25 µM (human DYRK1A and tau) [%] | inhibition at 0.5 µM (human DYRK1A and tau) [%] |
| --- | --- | --- | --- | --- | --- |
| CCNc1nc(Nc2ccc(C(=O)N3CCC(N4CCOCC4)CC3)c3c2OCC3)nc2[nH]cc(C(F)(F)F)c12 [Example 438, (7-((4-(ethylamino)-5-(trifluoromethyl)-7H-pyrrolo[2,3-d]pyrimidin-2-yl)amino)-2,3-dihydrobenzo-furan-4-yl)(4-morpho-linopiperidin-1-yl)methanone] | 301 to 1000 | < 100 | 86.8 | 46.3 | 69.7 |
| O=C(c1ccc(Nc2nc(NC3CCC3)c3c(C(F)(F)F)c[nH]c3n2)c2c1OCCO2)N1CCN(C2COC2)CC1 [Example 407, (8-((4-(cyclo-butylamino)-5-(trifluoromethyl)-7H-pyrrolo[2,3-d]pyrimidin-2-yl)amino)-2,3-dihydrobenzo[b] [1,4]dioxin-5-yl) (4-(oxetan-3-yl)piperazin-1-yl)methanone] | 301 to 1000 | < 100 | 58.6 | 20.7 | 39.4 |
| O=C(c1ccc(Nc2nc(NC3CC3)c3c(C(F)(F)F)c[nH]c3n2)c2c1CCO2)N1CCC(N2CCOCC2)CC1 [Example 434, (7-((4-(cyclopropyl-amino)5-(trifluoromethyl)-7H-pyrrolo[2,3-d]pyrimidin-2-yl)amino)-2,3-dihydrobenzo-furan-4-yl)(4-morpho-linopiperidin-1-yl)methanone] | 301 to 1000 | < 100 | 87.3 | 47.4 | 65.2 |
| COCCNc1nc(Nc2ccc(P3(=O)CCN(C4CCOCC4)CC3)cc2OC)nc2[nH]cc(C(F)(F)F)c12 [Example 444, 4-(3-methoxy-4-((4-((2-methoxyethyl)amino)-5-(trifluoromethyl)-7H-pyrrolo[2,3-d]pyrimidin-2-yl)amino)phenyl)-1-(tetrahydro-2H-pyran-4-yl)-1,4-azaphosphinane 4-oxide] | 301 to 1000 | < 100 | 65.6 | 21.7 | 45.7 |
| O=C(c1ccc(Nc2nc(NC3CC3)c3c(C(F)(F)F)c[nH]c3n2)c2c1OCCO2)N1CCN(C2COC2)CC1 [Example 405, (8-((4-(cyclo-propylamino)-5-(trifluoromethyl)-7H-pyrrolo[2,3-d]pyrimidin-2-yl)amino)-2,3-dihydrobenzo[b] [1,4]dioxin-5-yl) (4-(oxetan-3-yl)piperazin-1-yl)methanone] | 301 to 1000 | < 100 | 70.7 | 17.5 | 44 |
| CNc1nc(Nc2ccc(S(=O)(=O)N3CCC(N4CCOCC4)CC3)c3c2OCCO3)nc2[nH]cc(C(F)(F)F)c12 [Example 219, N^4-methyl-N^2-(8-((4-morpholinopiperidin-1-yl)sulfonyl)-2,3-dihydrobenzo[b][1,4]dioxin-5-yl)-5-(trifluoromethyl)-7H-pyrrolo[2,3-d]pyrimidine-2,4-diamine] | 301 to 1000 | < 100 | 84.2 | 42.1 | 58.8 |
| CCNc1nc(Nc2ccc(S(=O)(=O)N3CCC(N4CCOCC4)CC3)c3c2OCCO3)nc2[nH]cc(C(F)(F)F)c12 [Example 430, N^4-ethyl-N^2-(8-((4-morpholino-piperidin-1-yl)sulfonyl)-2,3-dihydro-benzo[b][1,4]dioxin-5-yl)-5-(trifluoromethyl)-7H-pyrrolo[2,3-d]pyrimidine-2,4-diamine] | 301 to 1000 | 101 to 300 | 65.3 | 10.8 | 41.6 |
| COc1cc(S(=O)(=O)N2CCC(N3C[C@H]4C[C@@H]3CO4)CC2)ccc1Nc1nc(C2CC2)c2c(C(F)(F)F)c[nH]c2n1 [Example 473, N-(4-((4-((1R,4R)-2-oxa-5-azabicyclo[2.2.1]heptan-5-yl)piperidin-1-yl)sulfonyl)-2-methoxyphenyl)-4-cyclopropyl-5-(trifluoromethyl)-7H-pyrrolo[2,3-d]pyrimidin-2-amine] | 301 to 1000 |  | 73.3 | 16.3 | 35.8 |
| N#Cc1c[nH]c2nc(Nc3ccc(C(=O)N4CCOCC4)c4c3OCCO4)nc(NCC3CCCC3)c12 [Example 133, 4-((cyclopentylmethyl)amino)-2-((8-(morpholine-4-carbonyl)-2,3-dihydrobenzo[b][1,4]dioxin-5-yl)amino)-7H-pyrrolo[2,3-d]pyrimidine-5-carbonitrile] | 51 to 100 | 301 to 1000 |  |  |  |
| COc1cc(S(=O)(=O)N2CCC(N3CCOCC3)CC2)ccc1Nc1nc(C2CC2)c2c(C#N)c[nH]c2n1 [Example 224, 4-cyclopropyl-2-((2-methoxy-4-((4-morpholinopiperidin-1-yl)sulfonyl)phenyl)amino)-7H-pyrrolo[2,3-d]pyrimidine-5-carbonitrile] | < 50 | 101 to 300 | 39.9 | 3.6 | 15.6 |
| CCCNc1nc(Nc2ccc(C(=O)N3CCC(N4CCOCC4)CC3)c3c2OCC3)nc2[nH]cc(C(F)(F)F)c12 [Example 446, (4-morpholino-piperidin-1-yl)(7-((4-(propylamino)-5-(trifluoromethyl)-7H-pyrrolo[2,3-d]pyrimidin-2-yl)amino)-2,3-dihydrobenzo-furan-4-yl)methanone] | 301 to 1000 | < 100 | 84.9 | 25.7 | 61.1 |
| CCNc1nc(Nc2cc(F)c(S(=O)(=O)N3CCC(N4CCOCC4)CC3)cc2OC)nc2[nH]cc(C(F)(F)F)c12 [Example 232, N^4-ethyl-N^2-(5-fluoro-2-methoxy-4-((4-morpholinopiperidin-1-yl)sulfonyl)phenyl)-5-(trifluoromethyl)-7H-pyrrolo[2,3-d]pyrimidine-2,4-diamine] | 301 to 1000 | 101 to 300 |  |  |  |
| O=C(c1ccc(Nc2nc(NC3CCCC3)c3c(C(F)(F)F)c[nH]c3n2)c2c1OCCO2)N1CCN(C2COC2)CC1 [Example 414, (8-((4-(cyclopentyl-amino)-5-(trifluoromethyl)-7H-pyrrolo[2,3-d]pyrimidin-2-yl)amino)-2,3-dihydrobenzo[b] [1,4]dioxin-5-yl) (4-(oxetan-3-yl)piperazin-1-yl)methanone] | 101 to 300 | < 100 |  |  |  |
| N#Cc1c[nH]c2nc(Nc3ccc(C(=O)N4CCC(N5CCOCC5)CC4)c4c3OCCO4)nc(C3CC3)c12 [Example 221, 4-cyclopropyl-2-((8-(4-morpholinopiperidine-1-carbonyl)-2,3-dihydrobenzo[b][1,4]dioxin-5-yl)amino)-7H-pyrrolo[2,3-d]pyrimidine-5-carbonitrile] | 301 to 1000 | < 100 |  |  |  |
| CNc1nc(Nc2cc(F)c(S(=O)(=O)N3CCC(N4CCOCC4)CC3)cc2OC)nc2[nH]cc(C(F)(F)F)c12 [Example 231, N^2-(5-fluoro-2-methoxy-4-((4-morpholinopiperidin-1-yl)sulfonyl)phenyl)-N^4-methyl-5-(trifluoromethyl)-7H-pyrrolo[2,3-d]pyrimidine-2,4-diamine] | 301 to 1000 | < 100 |  |  |  |
